# Measurements taken from US10988459B2 (priority 2015, dated 2021).
# Molecular target: human RIP1 kinase domain (2-375) (Homo sapiens (Human), UniProt Q13546)
# Experiment: biochemical
# Assay type: biochemical
# Details: Table 1; apparent Ki (Morrison tight-binding fit); 50 nM RIP1 kinase domain, 50 uM ATP, 2 hours incubation; read-out: RIP1 Ki
# Description: Example 794: RIP1 Kinase Inhibition Assays (Biochemical Assay)
# The compounds of the present invention were tested for their capacity to inhibit RIP1K activity as described below.
# The ability of the receptor interacting protein kinase (RIPK1) to catalyze the hydrolysis of adenosine-5′-triphosphate (ATP) is monitored using the Transcreener ADP (adenosine-5′-diphosphate) assay (BellBrook Labs). Purified human RIP1 kinase domain (2-375) (50 nM) derived from a baculovirus-infected insect cell expression system is incubated with test compounds for 2 hours in 50 mM Hepes buffer (pH 7.5) containing 30 mM MgCl2, 1 mM dithiothreitol, 50 uM ATP, 0.002% Brij-35, and 0.5% dimethyl sulfoxide (DMSO). […] The tracer bound to the antibody is displaced by the ADP generated during the RIP1K reaction, which causes a decrease in fluorescence polarization that is measured by laser excitation at 633 nm with a FP microplate reader M1000. Fractional activity was plotted against test article concentration. Using Genedata Screener software (Genedata; Basel, Switzerland), the data were fit to the tight-binding apparent inhibition constant (Ki^app) Morrison equation [Williams, J. W. and Morrison, J. F. (1979) The kinetics of reversible tight-binding inhibition. Methods Enzymol 63: 437-67]. The following equation was used to calculate fractional activity and Ki^app:
# [formula] where [E]T and [I]T are the total concentrations of active enzyme and test article, respectively.
# “Method” in the first column of each table refers to the synthetic method(s) used to prepare each compound as shown in the Examples above. In certain examples, chiral column retention times (min) are provided for certain stereoisomers.
# human RIP1 kinase domain (2-375), sequence (Q13546 2-375): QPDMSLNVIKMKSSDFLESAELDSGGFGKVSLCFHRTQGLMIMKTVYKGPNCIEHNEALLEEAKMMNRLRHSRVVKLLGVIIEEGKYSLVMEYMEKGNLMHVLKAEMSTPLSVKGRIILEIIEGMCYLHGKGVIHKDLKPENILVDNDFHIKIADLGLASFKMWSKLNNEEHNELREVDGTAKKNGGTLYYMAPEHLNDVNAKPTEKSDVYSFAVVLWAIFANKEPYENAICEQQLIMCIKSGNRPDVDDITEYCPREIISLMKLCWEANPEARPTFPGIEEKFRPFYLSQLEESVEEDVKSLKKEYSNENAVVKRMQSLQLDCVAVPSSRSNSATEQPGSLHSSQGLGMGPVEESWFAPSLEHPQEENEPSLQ
row,Compound,Ki [nM]
1,"CN1C(=O)[C@@H](NC(=O)c2nnc(Cc3ccccc3)[nH]2)CCn2nc(C3CC3)cc21 [Example 79, (S)-5-benzyl-N-(2-cyclopropyl-4-methyl-5-oxo-5,6,7,8-tetrahydro-4H-pyrazolo[1,5-a][1,3]diazepin-6-yl)-4H-1,2,4-triazole-3-carboxamide]",34
2,"O=C(N[C@H]1COc2ccccc2NC1=O)c1n[nH]c2c1CC1CC1C2 (stereo partly drawn) [Example 4, N—((S)-4-oxo-2,3,4,5-tetrahydrobenzo[b][1,4]oxazepin-3-yl)-1,4,4a,5,5a,6-hexahydrocyclopropa[f]indazole-3-carboxamide]",5500

# Same assay, conditions: Table 3; apparent Ki (Morrison tight-binding fit); 50 nM RIP1 kinase domain, 50 uM ATP, 2 hours incubation; read-out: Ki
row,Compound,Ki [nM]
1,"Cc1cc2n(n1)CCC(NC(=O)c1ncn(Cc3ccccc3)n1)C(=O)N2C (stereo not shown) [Example 333, 1-benzyl-N-(2,4-dimethyl-5-oxo-5,6,7,8-tetrahydro-4H-pyrazolo[1,5-a][1,3]diazepin-6-yl)-1H-1,2,4-triazole-3-carboxamide]",68

# Same assay, conditions: Table 5; apparent Ki (Morrison tight-binding fit); 50 nM RIP1 kinase domain, 50 uM ATP, 2 hours incubation; read-out: Ki
row,Compound,Ki [nM]
1,CN1C(=O)[C@@H](NC(=O)c2ncn(Cc3ccccc3)n2)CCn2nc(CCN3CCC3)cc21 [Example 756],623
2,"CC(C)[C@H]1CCCc2nc(C(=O)N[C@H]3COc4cc(F)cc(F)c4NC3=O)nn21 (single isomer, unassigned) [Example 717]",207
3,"CN1C(=O)[C@@H](NC(=O)c2ncn(Cc3ccccc3)n2)CCn2nc(Cn3ccnc3)cc21 [Example 707, (S)-1-benzyl-N-[2-(imidazol-1-ylmethyl)-4-methyl-5-oxo-7,8-dihydro-6H-pyrazolo[1,5-a][1, 3]diazepin-6-yl]-1,2,4-triazole-3-carboxamide]",530

# Same assay, conditions: human RIP1 kinase domain (2-375), 50 uM ATP, 2 hours incubation, Transcreener ADP assay; read-out: RIP1 Ki
row,Compound,Ki [nM]
1,"CC(C)C1CCc2cnc(C(=O)N[C@H]3COc4ccccc4N(C)C3=O)n2C1 (stereo partly drawn) [Example 173, 6-isopropyl-N—((S)-5-methyl-4-oxo-2,3,4,5-tetrahydrobenzo[b][1,4]oxazepin-3-yl)-5,6,7,8-tetrahydroimidazo[1,5-a]pyridine-3-carboxamide]",39.1
2,"CCOC(=O)[C@@H]1[C@@H]2CC[C@H](NC(=O)c3ncn(Cc4ccccc4)n3)C(=O)N(C)[C@@H]21 (single isomer, unassigned) [Example 131]",1300
3,"O=C(N[C@H]1COc2cc(F)cc(F)c2NC1=O)c1n[nH]c2c1C[C@@H](C(F)(F)F)CC2 (single isomer, unassigned) [Example 86]",20.8
4,"CN1C(=O)[C@@H](NC(=O)c2n[nH]c3ccc(Cl)nc23)COc2ccccc21 [Example 143, 5-chloro-N-[(3S)-5-methyl-4-oxo-2,3-dihydro-1,5-benzoxazepin-3-yl]-1H-pyrazolo[4,3-b]pyridine-3-carboxamide]",51.5

# Same assay, conditions: human RIP1 kinase domain (2-375), Transcreener ADP assay, 50 uM ATP, 2 hours incubation; read-out: RIP1 Ki
row,Compound,Ki [nM]
1,"Cc1cccc(Cn2cnc(C(=O)NC3CCn4nc(C5CC5)cc4N(C)C3=O)n2)n1 (stereo not shown) [Example 259, N-(2-cyclopropyl-4-methyl-5-oxo-5,6,7,8-tetrahydro-4H-pyrazolo[1,5-a][1,3]diazepin-6-yl)-1-((6-methylpyridin-2-yl)methyl)-1H-1,2,4-triazole-3-carboxamide]",789
2,"Cc1nn2c(c1C)N(C)C(=O)[C@@H](NC(=O)c1ncn(Cc3ccc(F)cc3F)n1)CC2 [Example 280, (S)-1-(2,4-difluorobenzyl)-N-(2,3,4-trimethyl-5-oxo-5,6,7,8-tetrahydro-4H-pyrazolo[1,5-a][1,3]diazepin-6-yl)-1H-1,2,4-triazole-3-carboxamide]",50.9
3,"CC[C@@]1(C)OCc2cnc(C(=O)N[C@H]3CCn4nc(C)c(C)c4N(C)C3=O)cc21 [Example 276, (R)-1-ethyl-1-methyl-N—((S)-2,3,4-trimethyl-5-oxo-5,6,7,8-tetrahydro-4H-pyrazolo[1,5-a][1,3]diazepin-6-yl)-1,3-dihydrofuro[3,4-c]pyridine-6-carboxamide]",93.6
4,"CCC1(C)OCc2cnc(C(=O)N[C@H]3CCn4nc(C)cc4N(C)C3=O)nc21 (stereo partly drawn) [Example 326, N—((S)-2,4-dimethyl-5-oxo-5,6,7,8-tetrahydro-4H-pyrazolo[1,5-a][1,3]diazepin-6-yl)-7-ethyl-7-methyl-5,7-dihydrofuro[3,4-d]pyrimidine-2-carboxamide]",618
5,"Cc1cc2n(n1)CC[C@H](NC(=O)c1ncn(Cc3cc(F)ccc3F)n1)C(=O)N2C [Example 305, (S)-1-(2,5-difluorobenzyl)-N-(2,4-dimethyl-5-oxo-5,6,7,8-tetrahydro-4H-pyrazolo[1,5-a][1,3]diazepin-6-yl)-1H-1,2,4-triazole-3-carboxamide]",15

# Same assay, conditions: tight-binding apparent inhibition constant; human RIP1 kinase domain (2-375) 50 nM, 50 uM ATP, 2 hours; read-out: Ki
row,Ki [nM],Compound
1,13,"Cc1ccccc1Cn1cnc(C(=O)N[C@H]2CCn3nccc3N(C)C2=O)n1 [Example 588, 1-(o-tolylmethyl)-N-(6S)-4-methyl-5-oxo-7,8-dihydro-6H-pyrazolo[1,5-a][1,3]diazepin-6-yl-1,2,4-triazole-3-carboxamide]"
2,17,"Cc1cc2n(n1)CC[C@H](NC(=O)c1ncn(Cc3ccccc3C)n1)C(=O)N2C [Example 591, 1-(o-tolylmethyl)-N-(6S)-2,4-dimethyl-5-oxo-7,8-dihydro-6H-pyrazolo[1,5-a][1,3]diazepin-6-yl-1,2,4-triazole-3-carboxamide]"
3,9.4,"O=C(N[C@H]1COc2cc(F)cc(F)c2NC1=O)c1nc2n(n1)CCO[C@H]2c1ccccc1 [Example 640, (8S)-8-phenyl-N-[(3S)-6,8-difluoro-4-oxo-3,5-dihydro-2H-1,5-benzoxazepin-3-yl]-6,8-dihydro-5H-[1,2,4]triazolo[5,1-c][1,4]oxazine-2-carboxamide]"
4,694,"CN1C(=O)[C@@H](NC(=O)c2nc3n(n2)CCO[C@H]3c2ccccc2)COc2ccccc21 (racemic) [Example 695, rac-(8S)-8-phenyl-N-[rac-(3S)-5-methyl-4-oxo-2,3-dihydro-1,5-benzoxazepin-3-yl]-6,8-dihydro-5H-[1,2,4] triazolo[5,1-c][1,4]oxazine-2-carboxamide]"
5,19,"CN1C(=O)[C@@H](NC(=O)c2ncn(Cc3cc(F)ccc3F)n2)CCn2ccnc21 [Example 506, 1-[(2,5-difluorophenyl)methyl]-N-[(7S)-9-methyl-8-oxo-6,7-dihydro-5H-imidazo[1,2-a][1,3]diazepin-7-yl]-1,2,4-triazole-3-carboxamide]"
6,310,"Cc1cc2n(n1)CC[C@H](NC(=O)c1ncn(CC3CCCCO3)n1)C(=O)N2C (stereo partly drawn) [Example 476, N-(6S)-2,4-dimethyl-5-oxo-7,8-dihydro-6H-pyrazolo[1,5-a][1,3]diazepin-6-yl-1-(tetrahydropyran-2-ylmethyl)-1,2,4-triazole-3-carboxamide]"
7,37,"Cc1cc2n(n1)CC[C@H](NC(=O)c1ncn(CC3CC(C)C3)n1)C(=O)N2C (stereo in doubt) [Example 491, 1-[(3-methylcyclobutyl)methyl]-N-(6S)-2,4-dimethyl-5-oxo-7,8-dihydro-6H-pyrazol[1,5-a][1,3]diazepin-6-yl-1,2,4-triazole-3-carboxamide]"
8,172,"CN1C(=O)[C@@H](NC(=O)c2ncc3c(n2)[C@]2(CCOC2)OC3)COc2ccccc21 (racemic) [Example 694, rac-(7S)-N-[rac-(3S)-5-methyl-4-oxo-2,3-dihydro-1,5-benzoxazepin-3-yl]spiro[5H-furo[3,4-d]pyrimidine-7,3′-tetrahydrofuran]-2-carboxamide]"
9,23,"CN1C(=O)[C@@H](NC(=O)c2nc3n(n2)CCC3c2ccccc2)COc2ccccc21 (stereo partly drawn) [Example 571, 7-phenyl-N-[(3S)-5-methyl-4-oxo-2,3-dihydro-1,5-benzoxazepin-3-yl]-6,7-dihydro-5H-pyrrolo[1,2-b][1,2,4]triazole-2-carboxamide]"

# The next lines start with the compound.
row,Compound,Ki [nM]
1,"CN1C(=O)[C@@H](NC(=O)c2nc3n(n2)[C@@H](C(F)(F)F)CCC3)COc2ccccc21 (single isomer, unassigned) [Example 425]",471
2,"CN1C(=O)[C@@H](NC(=O)c2nc3n(n2)[C@H](C2CCOCC2)CCC3)COc2ccccc21 (racemic) [Example 410, (S)—N—((S)-5-methyl-4-oxo-2,3,4,5-tetrahydrobenzo[b][1,4]oxazepin-3-yl)-5-(tetrahydro-2H-pyran-4-yl)-5,6,7,8-tetrahydro-[1,2,4]triazolo[1,5-a]pyridine-2-carboxamide]",121
3,"CCC1CCc2nc(C(=O)N[C@H]3COc4ccccc4N(C)C3=O)nn21 (stereo partly drawn) [Example 355, 5-ethyl-N-[(3S)-5-methyl-4-oxo-2,3-dihydro-1,5-benzoxazepin-3-yl]-6,7-dihydro-5H-pyrrolo[1,2-b][1,2,4]triazole-2-carboxamide]",52.1
4,"CN1C(=O)[C@@H](NC(=O)c2nc3n(n2)[C@H](c2cnn(C)c2)CCC3)COc2ccccc21 (racemic) [Example 411, (S)-5-(1-methyl-1H-pyrazol-4-yl)-N—((S)-5-methyl-4-oxo-2,3,4,5-tetrahydrobenzo[b][1,4]oxazepin-3-yl)-5,6,7,8-tetrahydro-[1,2,4]triazolo[1,5-a]pyridine-2-carboxamide]",6500
